Measurements taken from patent publication US9333210B2, “Medicine composition containing vitamin D and metformin” (GUANGDONG TAIHE MEDICINE SCIENCE & TECHNOLOGY CO., LTD, priority 2011, dated 2016).
Structures can show the parent of a compound that is named as a salt.

How the values were obtained:
[1] = test system: Wistar rats with dimethyl hydrazine-induced colorectal cancer; assay: Aberrant crypt foci (ACF) count in dimethyl hydrazine-induced colorectal cancer rats (Example 1); assay type: in vivo; conditions: for ACF AC = 1 / ACF AC = 2 / ACF AC = 3 / ACF AC ≧ 4 / The total number of ACF: DMH rats, week 18; for inhibitory effect on ACF, trend with dose: low, medium, high dose groups, end of week 18
Description: (§1) Wistar rats with dimethyl hydrazine-induced colorectal cancer were used as the model to study the chemoprevention by the combined administration of vitamin D3 and metformin hydrochloride for colorectal cancer and the effect on colorectal cancer.
(§2) Experimental animals were randomly divided into 11 groups (each group having 10), including blank control group, model control group, low, medium and high dose groups of vitamin D3, low, medium and high dose groups of metformin, and three groups of different doses of vitamin D3 in combination with metformin. Except for the blank control group, other groups were subcutaneously injected with dimethyl hydrazine once a week respectively for 18 weeks, to induce colorectal cancer model. Dimethylhydrazine was dissolved in sodium chloride injection, and into the solution, 5% NaOH solution was added to adjust pH to 6.5-7.0, thereby obtaining a 20 mg/ml solution. The resulting solution was filtered through 0.22 μm membrane, and prepared extemporaneously.
(§3) Vitamin D3 was prepared into 10-100 U/ml solution by using soybean oil, and intragastrically administrated, once a day. Metformin was prepare into 10-100 mg/ml solution, and administrated intragastrically, once a day. The above drugs were administrated from day 0.
(§4) All the animals were sacrificed at the end of 18th weeks after administration. Body weights were recorded once a week during the experiment, and the administrated dose was calculated based on the body weight. The animals that died during the experiment were dissected and observed.
(§5) 3.2.2 The large intestine was separated immediately after the animals were sacrificed, the contents of the intestine were washed away with saline, and colorectal tumors were visually observed to calculate the number of tumors. The entire colon was paved between two layers of filter paper, placed in 10% neutral formalin and fixed for 24-48 h. The fixed large intestine tissue was put into 0.2% methylene blue and stained for 10 s. The aberrant crypt foci (ACF) of the whole large intestine were immediately observed under an optical microscope, and the number of the aberrant crypt in foci was counted respectively as one, two, three and four as well as greater than four.
(§6) 3.2.3 The data were processed by using Excel 2003 software for statistical analysis, and the obtained data were represented by mean±standard deviation (mean±SD). P<0.05 means that there is statistically significant difference between two groups.

[2] = test system: Wistar rats with dimethyl hydrazine-induced colorectal cancer; assay: Tumorigenesis and tumor inhibition rate in dimethyl hydrazine-induced colorectal cancer rats (Example 1); assay type: in vivo; conditions: for Mean number of tumors / Number of Animals with tumor: DMH rats; for Mean number of tumors / Number of Animals with tumor / Inhibition rate(%): week 18; for Number of Animals with tumor: of 10 animals; for Inhibition rate(%): tumor number vs model control
Description: as §1, §2, §3, §4, §5, §6

[3] = test system: Wistar rats with dimethyl hydrazine-induced colorectal cancer; assay: Tumorigenesis and inhibition rate, drugs administrated from day 15 (Example 9); assay type: in vivo; conditions: drugs from day 15
Procedure: Example 1 was repeated, except that: The experimental animals were randomly divided into 11 groups, with 8 in each group. Except for the blank control group, other groups were subcutaneously injected of dimethylhydrazine once a week for 18 weeks to induce colorectal cancer model. Vitamin D3 was prepared into 10-100 U/ml solution by using soybean oil, and intragastrically administrated, once a day. Metformin was prepare into 10-100 mg/ml solution, and administrated orally, once a day. The above drugs were administrated from day 15 (after two weeks). During the experiments, tumorigenesis and inhibition rate were observed.

[4] = General situation and body weight of the rats (Example 1); conditions: DMH rats; for Weight gain: after 18 weeks; for Body weight Week 0: baseline
Description: as §2, §3, §4
3.2.1 The animals were observed daily to record the general conditions, such as mental activity, food-taking, feces, hair, and the like.

[5] = high dose group, metformin hydrochloride 360 mg/kg intragastrically once a day
[6] = low dose group, metformin hydrochloride 40 mg/kg intragastrically once a day
[7] = medium dose group, metformin hydrochloride 120 mg/kg intragastrically once a day
[8] = low, medium, high dose groups, end of week 18
[9] = high dose group, Vitamin D 300 U/kg intragastrically once a day
[10] = low dose group, Vitamin D 30 U/kg intragastrically once a day
[11] = medium dose group, Vitamin D 100 U/kg intragastrically once a day
[12] = medium dose group and high dose group, P<0.01

Structure (SMILES): CN(C)C(=N)N=C(N)N [metformin, metformin hydrochloride]
- ACF AC = 1 [1, 5]: 61.5 ± 8.1
- ACF AC = 2 [1, 5]: 13.8 ± 3.4
- ACF AC = 3 [1, 5]: 4.0 ± 1.2
- ACF AC ≧ 4 [1, 5]: 9.7 ± 3.2
- The total number of ACF [1, 5]: 89.0 ± 12.7
- ACF AC = 1 [1, 6]: 70.4 ± 10.6
- ACF AC = 2 [1, 6]: 16.7 ± 3.6
- ACF AC = 3 [1, 6]: 6.7 ± 1.7
- ACF AC ≧ 4 [1, 6]: 16.5 ± 2.1
- The total number of ACF [1, 6]: 110.3 ± 13.0
- inhibitory effect on ACF, trend with dose [1]: same trend
- ACF AC = 1 [1, 7]: 57.0 ± 10.7
- ACF AC = 2 [1, 7]: 16.6 ± 1.8
- ACF AC = 3 [1, 7]: 5.4 ± 1.6
- ACF AC ≧ 4 [1, 7]: 14.8 ± 3.0
- The total number of ACF [1, 7]: 93.8 ± 11.7
- Mean number of tumors [2, 5]: 1.6 ± 0.5
- Mean number of tumors [2, 6]: 2.0 ± 0.7
- number of tumors, trend with dose [2, 8]: reduced with the increase of dose
- Mean number of tumors [2, 7]: 1.8 ± 0.4
- Number of Animals with tumor [2, 5]: 10
- Number of Animals with tumor [2, 6]: 10
- Number of Animals with tumor [2, 7]: 10
- Inhibition rate(%) [2, 5]: 42.9%
- Inhibition rate(%) [2, 6]: 28.6%
- Inhibition rate(%) [2, 7]: 35.7%
- number of tumors, trend with dose ([3]; end of week 18): reduced with the increase of dose

Structure (SMILES): C=C1CC[C@H](O)C/C1=C/C=C1\CCC[C@]2(C)[C@@H]([C@H](C)CCCC(C)C)CC[C@@H]12 [vitamin D3, Vitamin D3]
- ACF AC = 1 [1, 9]: 61.8 ± 11.1
- ACF AC = 2 [1, 9]: 14.9 ± 5.9
- ACF AC = 3 [1, 9]: 5.0 ± 1.6
- ACF AC ≧ 4 [1, 9]: 9.8 ± 2.2
- The total number of ACF [1, 9]: 91.5 ± 7.2
- ACF AC = 1 [1, 10]: 80.5 ± 7.6
- ACF AC = 2 [1, 10]: 16.1 ± 5.7
- ACF AC = 3 [1, 10]: 9.0 ± 2.3
- ACF AC ≧ 4 [1, 10]: 20.0 ± 4.1
- The total number of ACF [1, 10]: 125.6 ± 12.1
- inhibitory effect on ACF, trend with dose [1]: increased with the increase of dose
- ACF AC = 1 [1, 11]: 67.9 ± 11.8
- ACF AC = 2 [1, 11]: 15.9 ± 5.7
- ACF AC = 3 [1, 11]: 4.8 ± 3.1
- ACF AC ≧ 4 [1, 11]: 16.1 ± 2.9
- The total number of ACF [1, 11]: 104.7 ± 14.3
- Mean number of tumors [2, 9]: 1.4 ± 0.8
- Mean number of tumors [2, 10]: 2.3 ± 0.5
- inhibition rate for tumor, trend with dose [2, 8]: increased with the increase of dose
- number of tumors compared with the model control group [2, 12]: significantly reduced
- Mean number of tumors [2, 11]: 1.7 ± 0.7
- Number of Animals with tumor [2, 9]: 8
- Number of Animals with tumor [2, 10]: 10
- Number of Animals with tumor [2, 11]: 10
- Inhibition rate(%) [2, 9]: 50.0%
- Inhibition rate(%) [2, 10]: 17.9%
- Inhibition rate(%) [2, 11]: 39.3%
- Weight gain [4, 9]: 225.7%
- Weight gain [4, 10]: 227.7%
- Weight gain [4, 11]: 235.7%
- Body weight Week 18 [4, 9]: 328.8 ± 23.6
- Body weight Week 0 [4, 9]: 101.5 ± 5.2
- Body weight Week 18 [4, 10]: 377.5 ± 27.5
- Body weight Week 0 [4, 10]: 100.3 ± 4.1
- Body weight Week 18 [4, 11]: 294.3 ± 22.1
- Body weight Week 0 [4, 11]: 102.9 ± 5.8
- inhibition rate for tumor, trend with dose ([3]; end of week 18): increased with the increased of dose
- tumor number compared with the model control group [3, 12]: significantly reduced
